Data published in PubChem BioAssay (NCI).
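Step 1: Grow cells in 96-well plates. Step 2: Expose to compound for 48 hours at 5 concentrations. Step 3: Interpolate endpoints linearly; if unreached, use highest concentration. Abbreviation: GI50, concentration required for 50% inhibition of growth. The concentration for full growth arrest is given as TGI.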

Assays:
Test in all cases: DTP human tumour cell line panel, 48 h
NCI-H460 lung = test system: NCI-H460 lung
MDA-MB-435 = test system: MDA-MB-435
UACC-62 melanoma = test system: UACC-62 melanoma
NCI-H23 lung = test system: NCI-H23 lung
786-0 renal = test system: 786-0 renal
SK-OV-3 ovarian = test system: SK-OV-3 ovarian
SNB-75 CNS = test system: SNB-75 CNS
UO-31 renal = test system: UO-31 renal
U251 CNS = test system: U251 CNS
A498 renal = test system: A498 renal
MOLT-4 leukemia = test system: MOLT-4 leukemia
LOX IMVI melanoma = test system: LOX IMVI melanoma
HS 578T breast = test system: HS 578T breast
SK-MEL-28 melanoma = test system: SK-MEL-28 melanoma
DU-145 prostate = test system: DU-145 prostate
OVCAR-8 ovarian = test system: OVCAR-8 ovarian
NCI-H522 lung = test system: NCI-H522 lung
SF-268 CNS = test system: SF-268 CNS
CAKI-1 renal = test system: CAKI-1 renal
MDA-MB-231 breast = test system: MDA-MB-231 breast
OVCAR-3 ovarian = test system: OVCAR-3 ovarian
SF-539 CNS = test system: SF-539 CNS
T-47D breast = test system: T-47D breast
SN12C renal = test system: SN12C renal
A549 NSCLC = test system: A549 NSCLC
PC-3 prostate = test system: PC-3 prostate
HOP-62 NSCLC = test system: HOP-62 NSCLC
HCT-116 colon = test system: HCT-116 colon
COLO 205 colon = test system: COLO 205 colon
M14 melanoma = test system: M14 melanoma
MCF7 breast = test system: MCF7 breast
SK-MEL-2 melanoma = test system: SK-MEL-2 melanoma
RXF 393 renal = test system: RXF 393 renal
CCRF-CEM leukemia = test system: CCRF-CEM leukemia
SK-MEL-5 melanoma = test system: SK-MEL-5 melanoma
SF-295 CNS = test system: SF-295 CNS
NCI-H226 lung = test system: NCI-H226 lung
HCC-2998 colon = test system: HCC-2998 colon
BT-549 breast = test system: BT-549 breast
HOP-92 NSCLC = test system: HOP-92 NSCLC
RPMI-8226 leukemia = test system: RPMI-8226 leukemia
K-562 leukemia = test system: K-562 leukemia
UACC-257 melanoma = test system: UACC-257 melanoma
HT29 colon = test system: HT29 colon
HCT-15 colon = test system: HCT-15 colon
OVCAR-5 ovarian = test system: OVCAR-5 ovarian
IGROV1 ovarian = test system: IGROV1 ovarian
SW-620 colon = test system: SW-620 colon
OVCAR-4 ovarian = test system: OVCAR-4 ovarian
SNB-19 CNS = test system: SNB-19 CNS
EKVX NSCLC = test system: EKVX NSCLC
NCI/ADR-RES ovarian = test system: NCI/ADR-RES ovarian
KM12 colon = test system: KM12 colon
MALME-3M melanoma = test system: MALME-3M melanoma
ACHN renal = test system: ACHN renal
TK-10 renal = test system: TK-10 renal
HL-60(TB) leukemia = test system: HL-60(TB) leukemia

SMILES: COc1cccc(OC(=O)c2ccc(C(F)(F)F)nc2Nc2c(C)cccc2Cl)c1
- GI50 (NCI-H460 lung): 26.4 µM
- TGI (NCI-H460 lung): > 100 µM
- GI50 (MDA-MB-435): 35 µM
- TGI (MDA-MB-435): > 100 µM
- GI50 (UACC-62 melanoma): 17.3 µM
- TGI (UACC-62 melanoma): 39.4 µM
- GI50 (NCI-H23 lung): 1.84 µM
- TGI (NCI-H23 lung): 19 µM
- GI50 (786-0 renal): 27.7 µM
- TGI (786-0 renal): > 100 µM
- GI50 (SK-OV-3 ovarian): 32.9 µM
- TGI (SK-OV-3 ovarian): > 100 µM
- GI50 (SNB-75 CNS): 16.4 µM
- TGI (SNB-75 CNS): 40.9 µM
- GI50 (UO-31 renal): 15.1 µM
- TGI (UO-31 renal): 32 µM
- GI50 (U251 CNS): 19.1 µM
- TGI (U251 CNS): 40.6 µM
- GI50 (A498 renal): 15 µM
- TGI (A498 renal): 41.3 µM
- GI50 (MOLT-4 leukemia): 31.5 µM
- TGI (MOLT-4 leukemia): > 100 µM
- GI50 (LOX IMVI melanoma): 20 µM
- TGI (LOX IMVI melanoma): 64.8 µM
- GI50 (HS 578T breast): 24.7 µM
- TGI (HS 578T breast): 94.6 µM
- GI50 (SK-MEL-28 melanoma): 20.5 µM
- TGI (SK-MEL-28 melanoma): 71.6 µM
- GI50 (DU-145 prostate): 32.1 µM
- TGI (DU-145 prostate): > 100 µM
- GI50 (OVCAR-8 ovarian): 19.5 µM
- TGI (OVCAR-8 ovarian): 46.3 µM
- GI50 (NCI-H522 lung): 16 µM
- TGI (NCI-H522 lung): 38.3 µM
- GI50 (SF-268 CNS): 24.8 µM
- TGI (SF-268 CNS): 86.8 µM
- GI50 (CAKI-1 renal): 16.3 µM
- TGI (CAKI-1 renal): 48.8 µM
- GI50 (MDA-MB-231 breast): 12.9 µM
- TGI (MDA-MB-231 breast): 42.5 µM
- GI50 (OVCAR-3 ovarian): 22.8 µM
- TGI (OVCAR-3 ovarian): 69.2 µM
- GI50 (SF-539 CNS): 23.4 µM
- TGI (SF-539 CNS): 70.4 µM
- GI50 (T-47D breast): 18.7 µM
- TGI (T-47D breast): > 100 µM
- GI50 (SN12C renal): 21.4 µM
- TGI (SN12C renal): 64.3 µM
- GI50 (A549 NSCLC): 22.8 µM
- TGI (A549 NSCLC): 58.6 µM
- GI50 (PC-3 prostate): 20 µM
- TGI (PC-3 prostate): 47.1 µM
- GI50 (HOP-62 NSCLC): 25.9 µM
- TGI (HOP-62 NSCLC): 82.3 µM
- GI50 (HCT-116 colon): 25.6 µM
- TGI (HCT-116 colon): > 100 µM
- GI50 (COLO 205 colon): 22.6 µM
- TGI (COLO 205 colon): > 100 µM
- GI50 (M14 melanoma): 38.9 µM
- TGI (M14 melanoma): > 100 µM
- GI50 (MCF7 breast): 15.8 µM
- TGI (MCF7 breast): 81.2 µM
- GI50 (SK-MEL-2 melanoma): 19.4 µM
- TGI (SK-MEL-2 melanoma): 45.9 µM
- GI50 (RXF 393 renal): 25 µM
- TGI (RXF 393 renal): 55.7 µM
- GI50 (CCRF-CEM leukemia): 25.6 µM
- TGI (CCRF-CEM leukemia): 78.9 µM
- GI50 (SK-MEL-5 melanoma): 33.3 µM
- TGI (SK-MEL-5 melanoma): > 100 µM
- GI50 (SF-295 CNS): 17.1 µM
- TGI (SF-295 CNS): 48.5 µM
- GI50 (NCI-H226 lung): 47.7 µM
- TGI (NCI-H226 lung): > 100 µM
- GI50 (HCC-2998 colon): 4.63 µM
- TGI (HCC-2998 colon): 32.3 µM
- GI50 (BT-549 breast): 30.4 µM
- TGI (BT-549 breast): > 100 µM
- GI50 (HOP-92 NSCLC): 17.6 µM
- TGI (HOP-92 NSCLC): 41.4 µM
- GI50 (RPMI-8226 leukemia): 35.8 µM
- TGI (RPMI-8226 leukemia): > 100 µM
- GI50 (K-562 leukemia): 36.5 µM
- TGI (K-562 leukemia): > 100 µM
- GI50 (UACC-257 melanoma): 33.4 µM
- TGI (UACC-257 melanoma): > 100 µM
- GI50 (HT29 colon): 26.4 µM
- TGI (HT29 colon): > 100 µM
- GI50 (HCT-15 colon): 54.1 µM
- TGI (HCT-15 colon): > 100 µM
- GI50 (OVCAR-5 ovarian): 3.13 µM
- TGI (OVCAR-5 ovarian): 21.2 µM
- GI50 (IGROV1 ovarian): 15.1 µM
- TGI (IGROV1 ovarian): 43.3 µM
- GI50 (SW-620 colon): 46 µM
- TGI (SW-620 colon): > 100 µM
- GI50 (OVCAR-4 ovarian): 13.8 µM
- TGI (OVCAR-4 ovarian): 30.9 µM
- GI50 (SNB-19 CNS): 22.4 µM
- TGI (SNB-19 CNS): 73.5 µM
- GI50 (EKVX NSCLC): 36.1 µM
- TGI (EKVX NSCLC): > 100 µM

SMILES: COc1ccc(N2CN(C)CSC2=S)cc1
- TGI (NCI-H460 lung): > 100 µM
- TGI (NCI/ADR-RES ovarian): > 100 µM
- TGI (MDA-MB-435): > 100 µM
- TGI (UACC-62 melanoma): > 100 µM
- TGI (NCI-H23 lung): > 100 µM
- TGI (SK-OV-3 ovarian): 66.8 µM
- TGI (SNB-75 CNS): > 100 µM
- TGI (UO-31 renal): > 100 µM
- TGI (U251 CNS): > 100 µM
- TGI (A498 renal): > 100 µM
- TGI (MOLT-4 leukemia): > 100 µM
- TGI (LOX IMVI melanoma): > 100 µM
- TGI (HS 578T breast): > 100 µM
- TGI (SK-MEL-28 melanoma): > 100 µM
- TGI (DU-145 prostate): > 100 µM
- TGI (OVCAR-8 ovarian): > 100 µM
- TGI (NCI-H522 lung): > 100 µM
- TGI (SF-268 CNS): > 100 µM
- TGI (CAKI-1 renal): > 100 µM
- TGI (MDA-MB-231 breast): > 100 µM
- TGI (OVCAR-3 ovarian): 24.4 µM
- TGI (SF-539 CNS): > 100 µM
- TGI (T-47D breast): > 100 µM
- TGI (KM12 colon): > 100 µM
- TGI (SN12C renal): > 100 µM
- TGI (A549 NSCLC): > 100 µM
- TGI (PC-3 prostate): > 100 µM
- TGI (MALME-3M melanoma): > 100 µM
- TGI (HOP-62 NSCLC): 61.5 µM
- TGI (HCT-116 colon): > 100 µM
- TGI (COLO 205 colon): > 100 µM
- TGI (ACHN renal): > 100 µM
- TGI (M14 melanoma): > 100 µM
- TGI (MCF7 breast): > 100 µM
- TGI (SK-MEL-2 melanoma): > 100 µM
- TGI (RXF 393 renal): > 100 µM
- TGI (CCRF-CEM leukemia): 87.2 µM
- TGI (TK-10 renal): > 100 µM
- TGI (SK-MEL-5 melanoma): > 100 µM
- TGI (SF-295 CNS): 86.2 µM
- TGI (HL-60(TB) leukemia): > 100 µM
- TGI (HCC-2998 colon): > 100 µM
- TGI (BT-549 breast): > 100 µM
- TGI (RPMI-8226 leukemia): > 100 µM
- TGI (K-562 leukemia): > 100 µM
- TGI (UACC-257 melanoma): > 100 µM
- TGI (HT29 colon): > 100 µM
- TGI (HCT-15 colon): > 100 µM
- TGI (OVCAR-5 ovarian): > 100 µM
- TGI (IGROV1 ovarian): > 100 µM
- TGI (SW-620 colon): > 100 µM
- TGI (OVCAR-4 ovarian): > 100 µM
- TGI (SNB-19 CNS): > 100 µM
- TGI (EKVX NSCLC): > 100 µM
